Assay results as given in US20250134855A1, “CO[…] AND METHODS OF USING SAME” (LYKOS THERAPEUTICS, INC., priority 2022, published 2025).

Assays:
[1] = system: bacterial reverse mutation assay (Ames test); test: In vitro bacterial reverse mutation assay (Ames test); type: cell-based; details: with or without metabolic activation
Excerpt: MDMA was not mutagenic with or without metabolic activation in the in vitro bacterial reverse mutation assay (Ames test).

[2] = system: participants with PTSD of moderate or greater severity; test: MAPP2 Phase 3: CAPS-5 total severity score; type: in vivo, human; details: for Change from Baseline in CAPS-5 Total Severity Score, LS Mean for Treatment Difference / Change from Baseline in CAPS-5 Total Severity Score, LS Mean / CAPS-5 Total Severity Score, Mean / CAPS-5 Total Severity Score, Median / Change from Baseline in CAPS-5 Total Severity Score, Mean / Change from Baseline in CAPS-5 Total Severity Score, Median / Loss of Diagnosis, % / Non-Responder, % / Remission, % / Responder (10-point reduction in CAPS-5 Total Severity Score), %: MAPP2, mITT; for Change from Baseline in CAPS-5 Total Severity Score, LS Mean for Treatment Difference: vs placebo; for Change from Baseline in CAPS-5 Total Severity Score, LS Mean / CAPS-5 Total Severity Score, Mean / CAPS-5 Total Severity Score, Median / Change from Baseline in CAPS-5 Total Severity Score, Mean / Change from Baseline in CAPS-5 Total Severity Score, Median: de jure
Excerpt: FIG. 36 and FIG. 37 show the time course of improvement in Clinician Administered PTSD Scale for DSM-5 (CAPS-5) total severity score versus placebo. Each show a treatment difference between MDMA and placebo after 3 medication sessions with psychological intervention. […] Between the second and third treatment sessions, the difference between the groups appeared to continue to increase in both studies. The primary efficacy measure was change from baseline in the CAPS-5 total severity score at 18 weeks, which was evaluated 2 months after the final dosing session. The CAPS-5 is a 30-item, clinician-rated scale used to assess severity of PTSD symptoms and diagnostic status according to DSM-5 criteria, as described herein. Scores on the CAPS 5 range from 0 to 80, with higher scores indicating more severe PTSD symptoms. In both studies, a secondary efficacy measure was change from baseline in Sheehan Disability Scale (SDS) mean item scores at 18 weeks. The modified SDS is a 3-item, clinician-rated scale measuring the degree of functional impairment in work, family, and social life. Scores on the SDS mean items range from 0 to 10, with higher scores indicating more functional impairment. In these studies, the efficacy assessments were administered by blinded independent raters 18 to 30 days after medication sessions 1 and 2.
MAPP2 was a Phase 3 randomized, placebo-controlled, 2-arm, double-blind, multi-site study conducted to investigate the efficacy and safety of MDMA-AT in participants with PTSD of moderate or greater severity. This study included 3 experimental sessions of therapy combined with either MDMA or placebo. During Experimental Session 1, participants received a split dose of 120 mg (80 mg+40 mg). Participants received an escalated split dose of 180 mg during Experimental Sessions 2 and 3 unless there were tolerability issues or the participant declined.
The primary outcome measure, the CAPS-5, evaluated changes in PTSD symptom severity and the secondary outcome measure, the SDS, evaluated changes in functional impairment. Both measures were assessed by a blinded centralized language-specific IR pool.
A de jure estimand of treatment efficacy was used to estimate the causal effect of MDMA-AT on PTSD symptom severity as measured by the change from Baseline to Visit 19 in CAPS-5 total severity scores in the mITT analysis set. […] Differences in treatment effect among demographic, dissociative sub-type, and overnight stay subgroups were not observed.

OAT3 = OAT3 (Homo sapiens, UniProt Q8TCC7); test: Transporter inhibition, OAT3
OAT3, sequence (Q8TCC7 whole entry): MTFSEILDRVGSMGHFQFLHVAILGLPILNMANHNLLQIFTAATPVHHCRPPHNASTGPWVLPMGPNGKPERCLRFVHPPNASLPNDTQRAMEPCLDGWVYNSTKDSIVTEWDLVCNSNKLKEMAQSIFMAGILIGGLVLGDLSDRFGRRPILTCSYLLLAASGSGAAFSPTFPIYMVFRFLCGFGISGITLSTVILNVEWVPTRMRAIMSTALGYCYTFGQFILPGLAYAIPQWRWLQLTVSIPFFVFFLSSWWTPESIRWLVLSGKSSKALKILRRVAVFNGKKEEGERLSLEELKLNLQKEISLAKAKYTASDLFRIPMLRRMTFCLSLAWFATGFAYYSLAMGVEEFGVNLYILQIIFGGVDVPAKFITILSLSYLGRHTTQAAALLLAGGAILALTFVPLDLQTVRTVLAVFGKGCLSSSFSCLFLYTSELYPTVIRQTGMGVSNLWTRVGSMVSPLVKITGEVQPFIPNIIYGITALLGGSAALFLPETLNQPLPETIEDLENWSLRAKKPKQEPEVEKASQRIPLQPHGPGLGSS

[3] = Baseline to Primary Outcome T4 (Visit 19)
[4] = Primary Outcome CAPS-5 T4 (Visit 19)

## CNC(C)Cc1ccc2c(c1)OCO2 (stereo not drawn) [MDMA, 3,4-methylenedioxymethamphetamine]
[1]
  mutagenicity, Ames test: not mutagenic
[2]; FIG. 36 and FIG. 37, both studies
  onset of treatment efficacy (CAPS-5 versus placebo): after the second session
[2]; MMRM, T2 (Visit 8)
  Change from Baseline in CAPS-5 Total Severity Score, LS Mean for Treatment Difference: −4.14
[2]; MMRM, T3 (Visit 13)
  Change from Baseline in CAPS-5 Total Severity Score, LS Mean for Treatment Difference: −7.98
[2]; MMRM, T4 (Visit 19)
  Change from Baseline in CAPS-5 Total Severity Score, LS Mean for Treatment Difference: −8.91
[2]; MMRM, Baseline to Primary Outcome T4 (Visit 19)
  Change from Baseline in CAPS-5 Total Severity Score, LS Mean: −23.69
[2]; MMRM, Baseline to T2 (Visit 8)
  Change from Baseline in CAPS-5 Total Severity Score, LS Mean: −11.36
[2]; MMRM, Baseline to T3 (Visit 13)
  Change from Baseline in CAPS-5 Total Severity Score, LS Mean: −18.58
[2]; Baseline CAPS-5 T1 (Visit 3)
  CAPS-5 Total Severity Score, Mean: 39.4
  CAPS-5 Total Severity Score, Median: 39.0
[2]; [3]
  Change from Baseline in CAPS-5 Total Severity Score, Mean: −23.5
  Change from Baseline in CAPS-5 Total Severity Score, Median: −25.0
[2]; Baseline to T2 (Visit 8)
  Change from Baseline in CAPS-5 Total Severity Score, Mean: −11.3
  Change from Baseline in CAPS-5 Total Severity Score, Median: −12.0
[2]; Baseline to T3 (Visit 13)
  Change from Baseline in CAPS-5 Total Severity Score, Mean: −18.5
  Change from Baseline in CAPS-5 Total Severity Score, Median: −20.0
[2]; CAPS-5 T2 (Visit 8)
  CAPS-5 Total Severity Score, Mean: 28.1
  CAPS-5 Total Severity Score, Median: 30.0
  Loss of Diagnosis, %: (39.6) %
  Non-Responder, %: (47.2) %
  Remission, %: (9.4) %
  Responder (10-point reduction in CAPS-5 Total Severity Score), %: (52.8) %
[2]; CAPS-5 T3 (Visit 13)
  CAPS-5 Total Severity Score, Mean: 20.9
  CAPS-5 Total Severity Score, Median: 19.0
  Loss of Diagnosis, %: (60.4) %
  Non-Responder, %: (22.6) %
  Remission, %: (26.4) %
  Responder (10-point reduction in CAPS-5 Total Severity Score), %: (77.4) %
[2]; [4]
  CAPS-5 Total Severity Score, Mean: 15.8
  CAPS-5 Total Severity Score, Median: 15.5
  Loss of Diagnosis, %: (71.2) %
  Non-Responder, %: (13.5) %
  Remission, %: (46.2) %
  Responder (10-point reduction in CAPS-5 Total Severity Score), %: (86.5) %
[2]; MAPP2, MMRM, de jure estimand, mITT
  change from Baseline to Visit 19 in CAPS-5 total severity scores: −23.69
[2]; MAPP2, Visit 19
  no longer met PTSD diagnostic criteria: 71.2%
  remission (CAPS-5 ≤11 and no longer meeting PTSD diagnostic criteria): 46.2%
  responders (10-point reduction in CAPS-5 total severity score): 86.5%
OAT3
  inhibition of OAT3: not an inhibitor
